# Columns and labels:
# metabolism of warfarin = conditions: concomitant warfarin; cited from earlier work
# rat = test: reproductive toxicology studies, dosing during pregnancy; assay type: in vivo
# From the text: (§1) As described herein, an exemplary restricted drug distribution program for the distribution of sitaxsentan sodium has been developed, in accordance with the restricted distribution methods provided above, to minimize the risk of side effects associated with exposure to sitaxsentan sodium. Sitaxsentan sodium is an endothelin receptor antagonist (ETRA) used to treat people diagnosed with pulmonary arterial hypertension (PAH). […] However, along with the many benefits, there are many risks associated with exposure to sitaxsentan sodium. For instance, ETRA's, as a class, have been associated with liver function abnormalities. […] In addition, ETRA's, as a class, have consistently produced teratogenic effects in animals. […] Although the effects of sitaxsentan sodium on human development are not known, it is likely to produce major birth defects if used by pregnant women. Sitaxsentan sodium also is contraindicated for those taking cyclosporine A (used for treatment of psoriasis and rheumatoid arthritis, and to prevent rejection of organ transplants).
# [1] = placebo-controlled trials, liver aminotransferases; assay type: in vivo, patients
# From the text: as §1
# [2] = test system: pulmonary arterial hypertension (PAH); test: clinical studies in subjects with PAH; assay type: in vivo
# From the text: as §1
smiles,measurement,setting,value
Cc1cc2c(cc1CC(=O)c1sccc1S(=O)(=O)Nc1onc(C)c1Cl)OCO2 [sitaxsentan sodium],effect on metabolism of warfarin,metabolism of warfarin,antagonize the metabolism of warfarin
same,reproductive toxicology: effect of dosing during pregnancy,rat,several fetal malformations
same,patients with at least a three-fold increase of liver aminotransferases (hepatoxicity),[1],about two
same,safety and efficacy in the treatment of PAH,[2],demonstrated safety and efficacy

# From patent publication US20070219825A1, “METHOD OF MANAGING AND REDUCING SIDE EFFECTS ASSOCIATED WITH EXPOSURE TO A DRUG” (priority 2005, published 2007)
